Tests used:
Format in all cases: in vivo
Settings in all cases: evaluated after 13 days
Setaria faberi (SETFA) [1] = test: Post-emergence herbicide test, glasshouse, percentage damage
Procedure: (§1) Seeds of a variety of test species are sown in standard soil in pots (Lolium perenne (LOLPE), Solanum nigrum (SOLNI), Amaranthus retoflexus (AMARE), Setaria faberi (SETFA), Echinochloa crus-galli (ECHCG), Ipomoea hederacea (IPOHE)). After cultivation for one day (pre-emergence) or after 8 days cultivation (post-emergence) under controlled conditions in a glasshouse (at 24/16° C., day/night; 14 hours light; 65% humidity), the plants are sprayed with an aqueous spray solution derived from the formulation of the technical active ingredient in acetone/water (50:50) solution containing 0.5% Tween 20 (polyoxyethelyene sorbitan monolaurate, CAS RN 9005-64-5). Compounds are applied at 500 g/ha unless otherwise stated. The test plants are then grown in a glasshouse under controlled conditions in a glasshouse (at 24/16° C., day/night; 14 hours light; 65% humidity) and watered twice daily. After 13 days for pre and post-emergence, the test is evaluated for the percentage damage caused to the plant. The biological activities are shown in the following table on a five point scale (5=81-100%; 4=61-80%; 3=41-60%; 2=21-40%; 1=0-20%).

Solanum nigrum (SOLNI) [2] = test: as above
Procedure: as §1

[3] = test system: Amaranthus retoflexus (AMARE); test: as above
Procedure: as §1

[4] = test system: Ipomoea hederacea (IPOHE); test: as above
Procedure: as §1

[5] = test system: Echinochloa crus-galli (ECHCG); test: as above
Procedure: as §1

Lolium perenne (LOLPE) [6] = test: as above
Procedure: as §1

Setaria faberi (SETFA) [7] = test: Pre-emergence herbicide test, glasshouse, percentage damage
Procedure: as §1

Solanum nigrum (SOLNI) [8] = test: as above
Procedure: as §1

[9] = test system: Amaranthus retoflexus (AMARE); test: as above
Procedure: as §1

[10] = test system: Ipomoea hederacea (IPOHE); test: as above
Procedure: as §1

[11] = test system: Echinochloa crus-galli (ECHCG); test: as above
Procedure: as §1

Lolium perenne (LOLPE) [12] = test: as above
Procedure: as §1

FC(F)(F)c1ccc(Oc2ccccc2-n2cc(C(F)(F)F)cn2)nc1 [Compound A15]
3 (3=41-60%): percentage damage caused to the plant, SETFA (Setaria faberi (SETFA) [1]; 1000 g/ha) | Pre-emergence Test LOLPE percentage damage (five point scale) (Lolium perenne (LOLPE) [12]; rate 1000 g/ha)
1 (1=0-20%): percentage damage caused to the plant, AMARE ([3]; 1000 g/ha) | percentage damage caused to the plant, LOLPE (Lolium perenne (LOLPE) [6]; 1000 g/ha) | Pre-emergence Test IPOHE percentage damage (five point scale) ([10]; rate 1000 g/ha)
5 (5=81-100%): Pre-emergence Test SETFA percentage damage (five point scale) (Setaria faberi (SETFA) [7]; rate 1000 g/ha) | Pre-emergence Test AMARE percentage damage (five point scale) ([9]; rate 1000 g/ha) | Pre-emergence Test ECHCG percentage damage (five point scale) ([11]; rate 1000 g/ha)
2 (2=21-40%): percentage damage caused to the plant, IPOHE ([4]; 1000 g/ha) | percentage damage caused to the plant, ECHCG ([5]; 1000 g/ha)
4 (4=61-80%): percentage damage caused to the plant, SOLNI (Solanum nigrum (SOLNI) [2]; 1000 g/ha) | Pre-emergence Test SOLNI percentage damage (five point scale) (Solanum nigrum (SOLNI) [8]; rate 1000 g/ha)

Fc1cc(Cl)cnc1Oc1ccccc1-n1ncc(C(F)(F)F)n1 [Compound A81]
3 (3=41-60%): Pre-emergence Test SOLNI percentage damage (five point scale) (Solanum nigrum (SOLNI) [8]; rate 1000 g/ha)
1 (1=0-20%): percentage damage caused to the plant, LOLPE (Lolium perenne (LOLPE) [6]; 1000 g/ha) | Pre-emergence Test LOLPE percentage damage (five point scale) (Lolium perenne (LOLPE) [12]; rate 1000 g/ha)
2 (2=21-40%): percentage damage caused to the plant, IPOHE ([4]; 1000 g/ha) | Pre-emergence Test IPOHE percentage damage (five point scale) ([10]; rate 1000 g/ha)
5 (5=81-100%): percentage damage caused to the plant, AMARE ([3]; 1000 g/ha) | Pre-emergence Test AMARE percentage damage (five point scale) ([9]; rate 1000 g/ha)
4 (4=61-80%): percentage damage caused to the plant, SETFA (Setaria faberi (SETFA) [1]; 1000 g/ha) | percentage damage caused to the plant, SOLNI (Solanum nigrum (SOLNI) [2]; 1000 g/ha) | percentage damage caused to the plant, ECHCG ([5]; 1000 g/ha) | Pre-emergence Test SETFA percentage damage (five point scale) (Setaria faberi (SETFA) [7]; rate 1000 g/ha) | Pre-emergence Test ECHCG percentage damage (five point scale) ([11]; rate 1000 g/ha)

Fc1cc(Cl)cnc1Oc1ccccc1-n1cc(C(F)(F)F)nn1 [Compound A82]
5 (5=81-100%): percentage damage caused to the plant, SETFA (Setaria faberi (SETFA) [1]; 1000 g/ha) | percentage damage caused to the plant, SOLNI (Solanum nigrum (SOLNI) [2]; 1000 g/ha) | percentage damage caused to the plant, AMARE ([3]; 1000 g/ha) | percentage damage caused to the plant, IPOHE ([4]; 1000 g/ha) | percentage damage caused to the plant, LOLPE (Lolium perenne (LOLPE) [6]; 1000 g/ha) | Pre-emergence Test SETFA percentage damage (five point scale) (Setaria faberi (SETFA) [7]; rate 1000 g/ha) | Pre-emergence Test AMARE percentage damage (five point scale) ([9]; rate 1000 g/ha) | Pre-emergence Test IPOHE percentage damage (five point scale) ([10]; rate 1000 g/ha) | Pre-emergence Test ECHCG percentage damage (five point scale) ([11]; rate 1000 g/ha) | Pre-emergence Test LOLPE percentage damage (five point scale) (Lolium perenne (LOLPE) [12]; rate 1000 g/ha)
4 (4=61-80%): percentage damage caused to the plant, ECHCG ([5]; 1000 g/ha) | Pre-emergence Test SOLNI percentage damage (five point scale) (Solanum nigrum (SOLNI) [8]; rate 1000 g/ha)

Fc1cc(Cl)cnc1Oc1ccccc1-c1csc(Cl)c1 [Compound A69]
1 (1=0-20%): percentage damage caused to the plant, LOLPE (Lolium perenne (LOLPE) [6]; 1000 g/ha) | Pre-emergence Test SETFA percentage damage (five point scale) (Setaria faberi (SETFA) [7]; rate 1000 g/ha) | Pre-emergence Test SOLNI percentage damage (five point scale) (Solanum nigrum (SOLNI) [8]; rate 1000 g/ha) | Pre-emergence Test IPOHE percentage damage (five point scale) ([10]; rate 1000 g/ha) | Pre-emergence Test ECHCG percentage damage (five point scale) ([11]; rate 1000 g/ha) | Pre-emergence Test LOLPE percentage damage (five point scale) (Lolium perenne (LOLPE) [12]; rate 1000 g/ha)
2 (2=21-40%): percentage damage caused to the plant, IPOHE ([4]; 1000 g/ha)
3 (3=41-60%): percentage damage caused to the plant, SETFA (Setaria faberi (SETFA) [1]; 1000 g/ha) | percentage damage caused to the plant, AMARE ([3]; 1000 g/ha) | Pre-emergence Test AMARE percentage damage (five point scale) ([9]; rate 1000 g/ha)
4 (4=61-80%): percentage damage caused to the plant, SOLNI (Solanum nigrum (SOLNI) [2]; 1000 g/ha) | percentage damage caused to the plant, ECHCG ([5]; 1000 g/ha)

N#Cc1cc(C(F)(F)F)cnc1Oc1cccc(Cl)c1-c1cc(C(F)F)no1 [Compound A118]
4 (4=61-80%): Pre-emergence Test SOLNI percentage damage (five point scale) (Solanum nigrum (SOLNI) [8]; rate 1000 g/ha) | Pre-emergence Test IPOHE percentage damage (five point scale) ([10]; rate 1000 g/ha)
5 (5=81-100%): percentage damage caused to the plant, SETFA (Setaria faberi (SETFA) [1]; 1000 g/ha) | percentage damage caused to the plant, SOLNI (Solanum nigrum (SOLNI) [2]; 1000 g/ha) | percentage damage caused to the plant, AMARE ([3]; 1000 g/ha) | percentage damage caused to the plant, IPOHE ([4]; 1000 g/ha) | percentage damage caused to the plant, ECHCG ([5]; 1000 g/ha) | percentage damage caused to the plant, LOLPE (Lolium perenne (LOLPE) [6]; 1000 g/ha) | Pre-emergence Test SETFA percentage damage (five point scale) (Setaria faberi (SETFA) [7]; rate 1000 g/ha) | Pre-emergence Test AMARE percentage damage (five point scale) ([9]; rate 1000 g/ha) | Pre-emergence Test ECHCG percentage damage (five point scale) ([11]; rate 1000 g/ha) | Pre-emergence Test LOLPE percentage damage (five point scale) (Lolium perenne (LOLPE) [12]; rate 1000 g/ha)

Fc1cc(C(F)(F)F)cnc1Oc1cccc(F)c1-c1cc(C(F)F)no1 [Compound A21]
3 (3=41-60%): percentage damage caused to the plant, SOLNI (Solanum nigrum (SOLNI) [2]; 1000 g/ha) | percentage damage caused to the plant, IPOHE ([4]; 1000 g/ha) | percentage damage caused to the plant, LOLPE (Lolium perenne (LOLPE) [6]; 1000 g/ha)
2 (2=21-40%): Pre-emergence Test SOLNI percentage damage (five point scale) (Solanum nigrum (SOLNI) [8]; rate 1000 g/ha) | Pre-emergence Test IPOHE percentage damage (five point scale) ([10]; rate 1000 g/ha)
5 (5=81-100%): Pre-emergence Test SETFA percentage damage (five point scale) (Setaria faberi (SETFA) [7]; rate 1000 g/ha) | Pre-emergence Test AMARE percentage damage (five point scale) ([9]; rate 1000 g/ha) | Pre-emergence Test ECHCG percentage damage (five point scale) ([11]; rate 1000 g/ha)
4 (4=61-80%): percentage damage caused to the plant, SETFA (Setaria faberi (SETFA) [1]; 1000 g/ha) | percentage damage caused to the plant, AMARE ([3]; 1000 g/ha) | percentage damage caused to the plant, ECHCG ([5]; 1000 g/ha) | Pre-emergence Test LOLPE percentage damage (five point scale) (Lolium perenne (LOLPE) [12]; rate 1000 g/ha)

N#Cc1ccc(Oc2cccc(F)c2-c2cc(C(F)F)no2)nc1 [Compound A12]
5 (5=81-100%): percentage damage caused to the plant, SETFA (Setaria faberi (SETFA) [1]; 500 g/ha) | percentage damage caused to the plant, SOLNI (Solanum nigrum (SOLNI) [2]; 500 g/ha) | percentage damage caused to the plant, AMARE ([3]; 500 g/ha) | percentage damage caused to the plant, IPOHE ([4]; 500 g/ha) | percentage damage caused to the plant, ECHCG ([5]; 500 g/ha) | percentage damage caused to the plant, LOLPE (Lolium perenne (LOLPE) [6]; 500 g/ha) | Pre-emergence Test SETFA percentage damage (five point scale) (Setaria faberi (SETFA) [7]; rate 500 g/ha) | Pre-emergence Test SOLNI percentage damage (five point scale) (Solanum nigrum (SOLNI) [8]; rate 500 g/ha) | Pre-emergence Test AMARE percentage damage (five point scale) ([9]; rate 500 g/ha) | Pre-emergence Test IPOHE percentage damage (five point scale) ([10]; rate 500 g/ha) | Pre-emergence Test ECHCG percentage damage (five point scale) ([11]; rate 500 g/ha) | Pre-emergence Test LOLPE percentage damage (five point scale) (Lolium perenne (LOLPE) [12]; rate 500 g/ha)

Fc1cccc(Oc2ccc(C(F)F)cn2)c1-c1cc(C(F)F)no1 [Compound A77]
2 (2=21-40%): percentage damage caused to the plant, ECHCG ([5]; 250 g/ha) | percentage damage caused to the plant, LOLPE (Lolium perenne (LOLPE) [6]; 250 g/ha) | Pre-emergence Test ECHCG percentage damage (five point scale) ([11]; rate 250 g/ha) | Pre-emergence Test LOLPE percentage damage (five point scale) (Lolium perenne (LOLPE) [12]; rate 250 g/ha)
5 (5=81-100%): percentage damage caused to the plant, SETFA (Setaria faberi (SETFA) [1]; 250 g/ha) | percentage damage caused to the plant, SOLNI (Solanum nigrum (SOLNI) [2]; 250 g/ha) | percentage damage caused to the plant, AMARE ([3]; 250 g/ha) | Pre-emergence Test SETFA percentage damage (five point scale) (Setaria faberi (SETFA) [7]; rate 250 g/ha) | Pre-emergence Test AMARE percentage damage (five point scale) ([9]; rate 250 g/ha)
4 (4=61-80%): Pre-emergence Test SOLNI percentage damage (five point scale) (Solanum nigrum (SOLNI) [8]; rate 250 g/ha)
1 (1=0-20%): percentage damage caused to the plant, IPOHE ([4]; 250 g/ha) | Pre-emergence Test IPOHE percentage damage (five point scale) ([10]; rate 250 g/ha)
